Assay results from ChEMBL document CHEMBL4033739, “Design and synthesis of novel δ opioid receptor agonists with an azatricyclodecane skeleton for improving blood-brain barrier penetration” (Bioorg Med Chem Lett, 2017).
pEC50, pKi: −log10 of the molar value.

Experiments:
[1] = target: T1, Delta-type opioid receptor (Homo sapiens, UniProt P41143); assay: Displacement of [3H]DPDPE from human recombinant DOR expressed in CHO cell membranes
Mu-type opioid receptor [2] = target: T2, Mu-type opioid receptor (Homo sapiens, UniProt P35372); assay: Displacement of [3H]DAMGO from human recombinant MOR expressed in CHO cell membranes
[3] = target: T3, Kappa-type opioid receptor (Homo sapiens, UniProt P41145); assay: Displacement of [3H]U-69,593 from human recombinant KOR expressed in CHO cell membranes
Homo sapiens [4] = species on record: Homo sapiens; assay: Selectivity index, ratio of Ki for human recombinant MOR expressed in CHO cell membranes to Ki for human recombinant DOR expressed in CHO cell membranes; format: cell-based
Homo sapiens [5] = species on record: Homo sapiens; assay: Selectivity index, ratio of Ki for human recombinant KOR expressed in CHO cell membranes to Ki for human recombinant DOR expressed in CHO cell membranes; format: cell-based
[6] = target: T1, Delta-type opioid receptor; assay: Agonist activity at human recombinant DOR expressed in CHO cells assessed as cAMP accumulation; format: functional, cell-based
[7] = target: T1, Delta-type opioid receptor; assay: Agonist activity at human recombinant DOR expressed in CHO cells assessed as cAMP accumulation relative to SNC80; format: functional, cell-based
Mu-type opioid receptor [8] = target: T2, Mu-type opioid receptor; assay: Agonist activity at human recombinant MOR expressed in CHO cells assessed as cAMP accumulation at 10 uM relative to DAMGO; format: functional, cell-based
[9] = target: T3, Kappa-type opioid receptor; assay: Agonist activity at human recombinant KOR expressed in CHO cells assessed as cAMP accumulation; format: functional, cell-based
[10] = target: T3, Kappa-type opioid receptor; assay: Agonist activity at human recombinant KOR expressed in CHO cells assessed as cAMP accumulation relative to U-69,593; format: functional, cell-based
Mu-type opioid receptor [11] = target: T2, Mu-type opioid receptor; assay: Agonist activity at human recombinant MOR expressed in CHO cells assessed as cAMP accumulation; format: functional, cell-based
Mu-type opioid receptor [12] = target: T2, Mu-type opioid receptor; assay: Agonist activity at human recombinant MOR expressed in CHO cells assessed as cAMP accumulation relative to DAMGO; format: functional, cell-based
[13] = target: T3, Kappa-type opioid receptor; assay: Agonist activity at human recombinant KOR expressed in CHO cells assessed as cAMP accumulation at 10 uM relative to U-69,593; format: functional, cell-based
[14] = Apparent permeability at 10 uM incubated for 60 mins by RBT-24 kit; format: physicochemical; conditions: rat, not told
Mus musculus = assay: Antinociceptive activity in sc dosed ICR mouse assessed as reduction in acetic acid-induced writhing response administered 20 mins before acetic acid injection and measured for 20 mins post acetic acid injection; format: functional

T3 sequence (P41145 whole entry): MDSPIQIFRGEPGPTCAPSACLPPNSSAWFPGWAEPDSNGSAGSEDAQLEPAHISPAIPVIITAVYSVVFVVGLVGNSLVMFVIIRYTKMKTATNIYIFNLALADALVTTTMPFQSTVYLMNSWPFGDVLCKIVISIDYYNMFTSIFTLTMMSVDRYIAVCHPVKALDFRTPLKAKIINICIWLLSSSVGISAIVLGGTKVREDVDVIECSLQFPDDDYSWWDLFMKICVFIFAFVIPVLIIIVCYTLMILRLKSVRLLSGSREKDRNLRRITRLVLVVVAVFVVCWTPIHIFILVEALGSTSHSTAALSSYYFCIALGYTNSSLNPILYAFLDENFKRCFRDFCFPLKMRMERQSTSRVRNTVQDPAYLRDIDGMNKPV
T2 sequence (P35372 whole entry): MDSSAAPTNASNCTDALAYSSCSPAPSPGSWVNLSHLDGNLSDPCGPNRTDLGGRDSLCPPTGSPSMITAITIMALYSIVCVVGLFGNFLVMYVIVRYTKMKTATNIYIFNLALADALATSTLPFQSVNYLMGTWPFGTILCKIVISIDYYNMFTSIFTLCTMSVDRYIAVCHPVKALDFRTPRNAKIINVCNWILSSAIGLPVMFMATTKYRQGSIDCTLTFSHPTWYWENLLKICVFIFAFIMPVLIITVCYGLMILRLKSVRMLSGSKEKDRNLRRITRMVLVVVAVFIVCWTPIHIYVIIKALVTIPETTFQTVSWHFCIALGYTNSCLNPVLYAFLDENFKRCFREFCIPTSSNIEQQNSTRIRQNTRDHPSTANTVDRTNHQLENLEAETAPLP
T1 sequence (P41143 whole entry): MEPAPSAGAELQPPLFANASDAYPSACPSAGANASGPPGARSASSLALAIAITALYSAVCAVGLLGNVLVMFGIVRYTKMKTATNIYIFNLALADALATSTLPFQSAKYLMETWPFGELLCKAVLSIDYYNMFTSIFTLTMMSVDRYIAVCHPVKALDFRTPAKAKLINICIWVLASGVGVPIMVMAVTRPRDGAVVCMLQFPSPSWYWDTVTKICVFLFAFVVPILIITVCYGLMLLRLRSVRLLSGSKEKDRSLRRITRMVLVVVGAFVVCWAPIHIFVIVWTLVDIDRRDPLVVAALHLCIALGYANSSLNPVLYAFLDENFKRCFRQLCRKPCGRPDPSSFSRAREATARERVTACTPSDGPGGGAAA

Structure (SMILES) | pKi [1] | pKi (Mu-type opioid receptor [2]) | pKi [3] | Ratio Ki (Homo sapiens [4]) | Ratio Ki (Homo sapiens [5]) | pEC50 [6] | Emax [7] [%] | Emax (Mu-type opioid receptor [8]) [%] | pEC50 [9] | Emax [10] [%] | pEC50 (Mu-type opioid receptor [11]) | Emax (Mu-type opioid receptor [12]) [%] | Emax [13] [%] | Papp at 1 h, 10 µM [14] [×10⁻⁶ cm/s] | ED50 (Mus musculus) [mg/kg]
O=C(Oc1ccccc1)N1C[C@H]2CC34CCC1C2C31CCN(CC2CC2)C4Cc2ccc(O)cc21 (stereo partly drawn) | 9.08 | 9.08 | 9.28 | 1 | 0.6 | 8.89 | 92 | 5.6 | 8.60 | 27 | – | – | – | – | –
Oc1ccc2c(c1)C13CCN(CC4CC4)C(C2)C12CCC1C3[C@@H](CN1CC1CCCCC1)C2 (stereo partly drawn) | 8.84 | 8.60 | 9.11 | 1.7 | 0.5 | 8.77 | 82 | – | 8.24 | 45 | 7.68 | 17 | – | – | –
Oc1ccc2c(c1)C13CCN(CC4CC4)C(C2)C12CCC1C3[C@@H](CN1c1ccccc1)C2 (stereo partly drawn) | 8.90 | 9.02 | 8.61 | 0.8 | 1.9 | 8.33 | 82 | – | 8.09 | 54 | 8.00 | 50 | – | – | –
O=C(c1ccccc1)N1C[C@H]2CC34CCC1C2C31CCN(CC2CC2)C4Cc2ccc(O)cc21 (stereo partly drawn) | 9.68 | 9.24 | 9.44 | 2.7 | 1.7 | 9.51 | 93 | 4.7 | – | – | – | – | 5.5 | 18.5 | 1.15
O=C(Nc1ccccc1)N1C[C@H]2CC34CCC1C2C31CCN(CC2CC2)C4Cc2ccc(O)cc21 (stereo partly drawn) | 9.58 | 9.26 | 9.47 | 2.1 | 1.3 | 8.82 | 42 | 6.2 | 9.52 | 44 | – | – | – | – | –
Oc1ccc2c(c1)C13CCN(CC4CC4)C(C2)C12CCC1C3[C@@H](CN1c1cnccn1)C2 (stereo partly drawn) | 9.45 | 9.09 | 9.32 | 2.3 | 1.3 | 9.37 | 71 | 5.7 | 9.70 | 24 | – | – | – | – | –
Oc1ccc2c(c1)C13CCN(CC4CC4)C(C2)C12CCC1C3[C@@H](CN1Cc1ccccc1)C2 (stereo partly drawn) | 9.23 | 8.46 | 8.37 | 5.9 | 7.3 | 9.38 | 90 | 18 | 8.35 | 36 | – | – | – | – | –
O=C(c1ccccn1)N1C[C@H]2CC34CCC1C2C31CCN(CC2CC2)C4Cc2ccc(O)cc21 (stereo partly drawn) | 9.34 | 9.14 | 9.25 | 1.6 | 1.2 | 9.46 | 85 | 6.5 | – | – | – | – | 18 | – | –
O=C(c1ccoc1)N1C[C@H]2CC34CCC1C2C31CCN(CC2CC2)C4Cc2ccc(O)cc21 (stereo partly drawn) | 9.50 | 9.34 | 9.66 | 1.5 | 0.7 | 9.64 | 93 | – | 8.85 | 33 | 6.81 | 50 | – | – | –
